Assay results as given in US7005425B2, “Method for treating arrhythmias” (CV Therapeutics, Inc., priority 2002, dated 2006).

Tested on: awake rats
Experiment: Telemetry studies of heart rate in awake rats
Assay type: in vivo, Rats (Sprague Dawley)
Settings: CVT-510 20 μg/kg ip alone
Procedure: Rats (Sprague Dawley) weighing 300–400 gms were purchased from Simonsen laboratories. CVT-3619 was dissolved in DMSO and further diluted in saline. CVT-510 was dissolved in saline. Ketamine was purchased from Fort Dodge Animal Health, Xylazine from Bayer and Acepromazine Maleate from Fermenta Animal Health Co. Metoprolol and propranolol were purchased from SIGMA. Esmolol was obtained from a local pharmacy.
For these studies, rats were instrumented with radiotelemetered transmitters (Data Sciences) at least 3 weeks prior to experimentation. Animals were anesthetized by peritoneal injection of a “cocktail” (1 ml/kg) containing Ketamine (75 mg/ml), Xylazine (5 mg/ml), and Acepromazine (1 mg/ml). After 20–30 minutes of induction of anesthesia, a midline laparotomy was performed. The transmitter for recordings of ECG, blood pressure and body temperature was placed in the abdominal cavity, and secured to the abdominal muscles. Two electrocardiographic leads were tunneled through the subcutaneous—one toward the upper left shoulder and the other to the right thigh, and secured with sutures. A fluid filled sensor catheter was inserted in the descending aorta above the iliac bifurcation for measurement of blood pressure. The tip of the telemetry catheter was located in the abdominal aorta just caudal to the renal arteries. Once the transmitter and leads were in place and determined to be functioning properly, the abdominal wall was sutured. After recovery from anesthesia, the rats were housed individually in cages placed on their respective receivers. The ECG, blood pressure and temperature were recorded and heart rate measured by a Dataquest ART Gold system (Version 2.2; Data Sciences Intl). The system consisted of a transmitter, i.e., biopotential sensor (Model TL11M2-C50-PXT), receivers (Model RPC-1), a consolidation matrix (BCM 100), a personal computer (Compaq DeskPro Series 3574) and Dataquest 4 software. Heart rate, blood pressure and temperature were measured at 5-minute intervals. Each recording lasted 10 seconds and all cardiac cycles within this period were averaged. Animals were given various drugs in a randomized manner after recording the baseline data for at least two hours.
A subgroup of animals was implanted with osmotic pumps containing CVT-510 for combination experiments. […]
The slowing of heart rate caused by each treatment was quantified by determining the area under the curve (AUC), using the trapezoidal method for calculations. Data used for analysis was the area under/over the curve calculated using change form baseline data (untreated animals). The data was analyzed for the magnitude as well as the duration of bradycardia caused by each treatment. […]

For `OC[C@H]1O[C@@H](n2cnc3c(N[C@@H]4CCOC4)ncnc32)[C@H](O)[C@@H]1O` [CVT-510, 6-(3-(R)-aminotetrahydrofuranyl)purine riboside], the “effect on heart rate (FIG. 3)” value was “transiently lowers the heart rate below baseline levels” and the “effect on heart rate (FIG. 4)” value was “slowed the heart rate in a dose dependent manner”.
